In one assay the target is T1, F508delCFTR (Homo sapiens, UniProt P13569, DEL508-508).
T1 construct: expressed in transfected cells; host or cells: CFBE41o- (CFBE41o-F508delCFTR-HRP), doxycycline-inducible
The assay is described as follows: Cell Surface Expression-Horse Radish Peroxidase (CSE-HRP) assay. As to conditions: CFBE41o-F508delCFTR-HRP cells; for Maximum % activity: maximum at any tested concentration, normalized to on-plate positive control (3 μM) and DMSO; for EC50: cell surface expression, luminescence readout, 18-24 hours at 33° C., highest concentration tested 20 μM, 8-point curve. Format: cell-based. The gist of the method: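 CFBE41o- cells expressing F508delCFTR with HRP in the fourth extracellular loop were doxycycline-induced (0.5 μg/mL) for 72 h at 37 °C, then treated 18-24 h at 33 °C with an 8-point 3-fold series from 20 μM. Surface HRP luminescence (luminol) was normalized to DMSO and positive control; EC50 came from variable-slope sigmoidal fits of triplicate plates.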

The next assay concerns the target T2, F508del/F508del CFTR (Homo sapiens, UniProt P13569, DEL508-508).
T2 construct: cells isolated from CF patients with the homozygous mutation; endogenous in cells; host or cells: primary human bronchial epithelial (hBE) cells from F508del/F508del CF patients
The assay can be described thus: Transepithelial Clamp Circuit (TECC-24) conductance assay on primary human bronchial epithelial cells. Format: cell-based. To be noted: primary hBE cells from F508del/F508delCFTR patients; for Maximum % activity: relative to positive control (3 μM) coupled with control potentiator = 100%; for EC50: equivalent short circuit current (Ieq), correctors 18-24 hours at 37° C., with control potentiator, 6 test concentrations. An excerpt:
Transepithelial Clamp Circuit on Human Bronchial Epithelial Cells Conductance Assay:
A cell based assay using the primary human bronchial epithelial cells (hBE) was used as a secondary assay to test novel F508delCFTR correctors for their activity on primary hBE cells with F508del/F508del CFTR mutation. The assay used a TECC-24 (Transepithelial Clamp Circuit for 24 wells) instrument that measures the functionality of the mutated channel by measuring the equivalent short circuit current (Ieq) generated by the polarized epithelial cells. The instrument works by measuring the transepithelial potential difference (Vt) and transepithelial resistance (Rt) in an open circuit format, and the Ieq is calculated by using Ohms law (Ieq=Vt/Rt). The assay was run in a 24-well format and all 24-wells were measured at the same time point giving a higher throughput for this assay.
Primary human bronchial epithelial (hBE) cells from F508del/F508delCFTR patients were expanded from 1×10^6 to 250×10^6 cells (Neuberger T, Burton B, Clark H and VanGoor F; Cystic Fibrosis, Methods in Mole Biol 741; eds. Amaral M D and Kunzelmann K, 2011). For this purpose, cells isolated from CF patients with the homozygous mutation were seeded onto 24 well Corning (Cat #3378) filter plates that were coated with 3T3 conditioned media and grown at an air-liquid interface for 35 days using an Ultroser® G supplemented differentiation media. Apical surface mucus was removed 72 hours before the experiment using 3 mM dithiothreitol (DTT) in phosphate buffered saline (PBS). The apical surface was washed again 24 hours before the experiment using PBS. The cells were incubated with the desired dose response of the corrector compounds 18-24 hours at 37° C., 5% CO2. The corrector compounds are only added on the basolateral side of the epithelial cells.
On the day of measuring the corrector activity on the TECC, the cells were switched into a bicarbonate and serum free F-12 Coon's medium and allowed to equilibrate for 90 minutes in a CO2 free incubator. At the time of measurement, the apical and basolateral sides of the filter were bathed with the F-12 Coon's modification media (with 20 mM 4-(2-hydroxyethyl)-1-piperazineethanesulfonic acid (HEPES), pH 7.4 (using 1 M tris(hydroxymethyl)aminomethane (Tris)), and the measurements were made at 36.5° C. Transepithelial voltage (Vt) and transepithelial resistance (Rt) were measured using a 24 channel transepithelial current clamp (TECC-24). Current responses to the sequential addition of benzamil (apical 6 M addition; for inhibiting epithelial ENaC channel), forskolin (apical and basolateral 10 M addition; for activating the CFTR channel), control potentiator (N-(3-carbamoyl-5,5,7,7-tetramethyl-4,7-dihydro-5H-thieno[2,3-c]pyran-2-yl)-1H-pyrazole-5-carboxamide; apical and basolateral 1 M addition; for potentiating the CFTR channel) and bumetanide (basolateral 20 μM addition; for inhibiting the Na:2Cl:K co-transporter, an indirect measure of inhibiting the Cl-secretion driven by CFTR channel) were measured.
All plates contained negative controls (dimethyl sulfoxide, DMSO) which coupled with the control potentiator (N-(3-carbamoyl-5,5,7,7-tetramethyl-4,7-dihydro-5H-thieno[2,3-c]pyran-2-yl)-1H-pyrazole-5-carboxamide) sets the null response and positive controls (3 μM of 3-[(2R,4R)-4-({[1-(2,2-difluoro-1,3-benzodioxol-5-yl)cyclopropyl]carbonyl}amino)-7-methoxy-3,4-dihydro-2H-chromen-2-yl]benzoic acid) coupled with the control potentiator sets the 100% response to measure the correction of the mutated CFTR channel. The maximum percent activity is reported relative to the positive control value.
The % activity measured at each of the 6 test concentrations of the test compound was normalized to the on-plate positive control using the following formula: % activity=[(test compound response−DMSO response)/(positive control response−DMSO response)]*100 […]

T2 sequence (P13569 with tags, fused parts or gaps DEL508-508): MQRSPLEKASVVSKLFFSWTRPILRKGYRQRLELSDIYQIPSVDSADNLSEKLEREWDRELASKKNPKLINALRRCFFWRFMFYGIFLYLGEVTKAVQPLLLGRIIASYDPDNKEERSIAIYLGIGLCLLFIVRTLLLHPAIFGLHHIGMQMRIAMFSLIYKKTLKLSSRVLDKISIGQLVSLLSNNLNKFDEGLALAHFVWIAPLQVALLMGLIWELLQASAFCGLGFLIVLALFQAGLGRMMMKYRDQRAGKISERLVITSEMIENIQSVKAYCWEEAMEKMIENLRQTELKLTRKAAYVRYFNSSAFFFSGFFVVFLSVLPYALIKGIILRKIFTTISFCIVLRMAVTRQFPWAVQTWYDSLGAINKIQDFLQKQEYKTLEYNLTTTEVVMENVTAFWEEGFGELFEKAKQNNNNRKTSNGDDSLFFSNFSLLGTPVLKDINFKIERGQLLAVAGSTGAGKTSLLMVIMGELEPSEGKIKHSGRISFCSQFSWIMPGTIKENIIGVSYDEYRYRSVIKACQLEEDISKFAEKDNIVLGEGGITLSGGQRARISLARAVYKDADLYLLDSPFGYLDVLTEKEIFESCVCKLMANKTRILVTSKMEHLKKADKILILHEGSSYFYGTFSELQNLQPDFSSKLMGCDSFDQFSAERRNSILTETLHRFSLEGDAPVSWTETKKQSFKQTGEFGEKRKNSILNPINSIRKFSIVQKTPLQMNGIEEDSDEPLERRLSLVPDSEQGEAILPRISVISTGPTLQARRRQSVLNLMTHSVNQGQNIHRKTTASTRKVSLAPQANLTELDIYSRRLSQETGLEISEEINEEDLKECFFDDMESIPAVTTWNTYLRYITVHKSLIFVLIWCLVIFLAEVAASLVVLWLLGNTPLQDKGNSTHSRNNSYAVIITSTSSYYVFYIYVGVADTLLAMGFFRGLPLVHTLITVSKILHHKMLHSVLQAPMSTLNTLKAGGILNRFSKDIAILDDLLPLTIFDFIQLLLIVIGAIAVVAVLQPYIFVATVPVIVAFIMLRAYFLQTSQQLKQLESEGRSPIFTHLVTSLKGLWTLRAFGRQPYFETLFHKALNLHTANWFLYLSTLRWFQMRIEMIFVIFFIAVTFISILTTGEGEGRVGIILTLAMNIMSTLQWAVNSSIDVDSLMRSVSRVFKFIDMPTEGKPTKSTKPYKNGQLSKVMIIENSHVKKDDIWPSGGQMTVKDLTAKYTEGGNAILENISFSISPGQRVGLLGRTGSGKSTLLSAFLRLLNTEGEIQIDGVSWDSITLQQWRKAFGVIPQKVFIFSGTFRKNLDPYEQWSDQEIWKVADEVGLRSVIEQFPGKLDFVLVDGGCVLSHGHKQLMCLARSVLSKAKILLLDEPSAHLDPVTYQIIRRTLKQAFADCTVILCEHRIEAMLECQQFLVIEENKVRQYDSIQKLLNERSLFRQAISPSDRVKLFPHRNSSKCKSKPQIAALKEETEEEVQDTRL
T1 sequence (P13569 with tags, fused parts or gaps DEL508-508): as above

As to `Cc1cc(C(=O)O)ccc1[C@H]1C[C@H](NC(=O)C2(c3ccc4c(c3)OC(F)(F)O4)CC2)C[C@@H](c2ccccc2)O1` (racemic) [Example 65, rac-4-[(2R,4R,6S)-4-({[1-(2,2-difluoro-1,3-benzodioxol-5-yl)cyclopropyl]carbonyl}amino)-6-phenyltetrahydro-2H-pyran-2-yl]-3-methylbenzoic acid], the figures for the Maximum % activity at F508delCFTR (3 µM) and at F508del/F508del CFTR were 100% and 84%, respectively.
Take `O=C(O)c1ccc([C@H]2C[C@@H](NC(=O)C3(c4ccc5c(c4)OC(F)(F)O5)CC3)CCO2)cc1` (racemic) [Example 14, rac-4-[(2R,4S)-4-({[1-(2,2-difluoro-1,3-benzodioxol-5-yl)cyclopropyl]carbonyl}amino)tetrahydro-2H-pyran-2-yl]benzoic acid]: the 50% effective concentration (EC50) on F508delCFTR was determined as 2860 nM; at F508del/F508del CFTR, 1340 nM. The Maximum % activity on F508delCFTR worked out at 113%; at F508del/F508del CFTR, 73%.
With `O=C(O)c1ccc([C@H]2C[C@@H](NC(=O)C3(c4ccc5c(c4)OC(F)(F)O5)CC3)CCO2)cc1` [Example 31, 4-[(2R,4S)-4-({[1-(2,2-difluoro-1,3-benzodioxol-5-yl)cyclopropyl]carbonyl}amino)tetrahydro-2H-pyran-2-yl]benzoic acid], on F508delCFTR, the half-maximal effective concentration (EC50) came out at 770 nM and the Maximum % activity is 102%. For the same molecule, on F508del/F508del CFTR, the EC50 was determined as 1030 nM and the “Maximum % activity” value worked out at 65%.
On the same counts, the results for `Cc1cc(C(=O)O)cc([C@H]2C[C@@H](NC(=O)C3(c4ccc5c(c4)OC(F)(F)O5)CC3)C[C@@H](c3ccccc3)O2)c1` (racemic) [Example 73, rac-3-[(2R,4S,6S)-4-({[1-(2,2-difluoro-1,3-benzodioxol-5-yl)cyclopropyl]carbonyl}amino)-6-phenyltetrahydro-2H-pyran-2-yl]-5-methylbenzoic acid] are 410 nM, 90%, 330 nM and 91%.
For the molecule `Cc1cc(C(=O)O)ccc1[C@H]1C[C@H](NC(=O)C2(c3ccc4c(c3)OC(F)(F)O4)CC2)C[C@@H](c2ccccc2)O1` (single isomer, unassigned) [Example 65], the values for the EC50 at F508delCFTR and on F508del/F508del CFTR were 370 nM and 200 nM, respectively.

Usually EC50 stands for the midpoint of the concentration-response curve.
